Measurements published in patent publication US20220267260A1, “COMPOUNDS CONTAINING A SULFONIC GROUP AS KAT INHIBITORS” (Epizyme, Inc., priority 2016, published 2022).

What was measured:
[1] = biological target: T1, KAT5 (Homo sapiens, UniProt Q92993); experiment: KAT5 enzyme inhibition assay (SAMDI mass spectrometry); format: biochemical; conditions: His-TEV-FL KAT5-Flag enzyme construct
T1 construct: His-TEV tag (N, cleaved yes); made in house

[2] = biological target: T2, KAT6A (Homo sapiens, UniProt Q92794); experiment: KAT6A enzyme inhibition assay (SAMDI mass spectrometry); format: biochemical; conditions: His-TEV-KAT6A 501-784 enzyme construct
T2 construct: His-TEV tag (N, cleaved yes); made in house
T2 sequence (Q92794 with tags, fused parts or gaps): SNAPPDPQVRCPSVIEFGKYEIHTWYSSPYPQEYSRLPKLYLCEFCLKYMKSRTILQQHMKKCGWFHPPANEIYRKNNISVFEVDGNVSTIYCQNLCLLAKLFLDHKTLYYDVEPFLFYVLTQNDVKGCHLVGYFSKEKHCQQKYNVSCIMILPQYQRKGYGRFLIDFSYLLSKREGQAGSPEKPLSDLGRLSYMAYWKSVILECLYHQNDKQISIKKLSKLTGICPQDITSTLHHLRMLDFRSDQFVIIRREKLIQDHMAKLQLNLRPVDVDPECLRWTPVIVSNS

T1 sequence (Q92993 with tags, fused parts or gaps): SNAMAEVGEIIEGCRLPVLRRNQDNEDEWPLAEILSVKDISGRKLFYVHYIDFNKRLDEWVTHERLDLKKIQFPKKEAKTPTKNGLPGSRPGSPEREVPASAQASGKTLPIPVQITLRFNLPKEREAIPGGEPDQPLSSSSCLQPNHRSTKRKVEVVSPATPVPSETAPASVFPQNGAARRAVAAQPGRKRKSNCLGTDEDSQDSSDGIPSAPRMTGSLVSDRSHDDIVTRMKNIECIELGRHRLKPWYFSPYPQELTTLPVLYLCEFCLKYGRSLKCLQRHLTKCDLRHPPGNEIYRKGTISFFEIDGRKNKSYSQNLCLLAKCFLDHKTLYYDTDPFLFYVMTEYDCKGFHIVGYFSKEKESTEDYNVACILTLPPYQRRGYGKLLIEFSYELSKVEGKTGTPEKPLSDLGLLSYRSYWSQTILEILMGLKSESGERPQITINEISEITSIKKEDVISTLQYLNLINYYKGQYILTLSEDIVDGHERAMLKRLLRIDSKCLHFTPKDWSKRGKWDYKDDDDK

Row | IC50 [1] [µM] | IC50 [2] [µM] | Structure (SMILES)
1 | > 100 | > 100 | Cc1cnc(CNC(=O)c2cc(-c3ccccc3)cc(C)c2F)[nH]1 [Compound I-295]
2 | 10 to 50 | 50 to 100 | Cc1cc(-c2ccc(F)cc2)cc(C(=O)NNS(=O)(=O)C2CCCCC2)c1F [Compound I-319]
3 | ≤ 10 | ≤ 10 | CNC(=O)c1cccc(S(=O)(=O)NNC(=O)c2cc(-c3ccccc3)cc(C)c2F)c1 [Compound I-219]
4 | ≤ 10 | ≤ 10 | Cc1cc(-c2ccccc2F)cc(C(=O)NNS(=O)(=O)c2ccccc2)c1F [Compound I-271]
5 | 10 to 50 | 10 to 50 | O=C(NNS(=O)(=O)C1CCOCC1)c1cc(-c2cccc(CO)c2)cc(Cl)c1F [Compound I-482]
6 | ≤ 10 | 10 to 50 | O=C(NNS(=O)(=O)C1CCCCC1)c1cc(-c2ccc(O)cc2)cc(Cl)c1F [Compound I-460]
7 | ≤ 10 | ≤ 10 | Cc1cc(-c2cccc(F)c2)cc(C(=O)NNS(=O)(=O)C2CCCCC2)c1F [Compound I-323]
8 | 50 to 100 | 10 to 50 | CCC(=O)N1CC(S(=O)(=O)NNC(=O)c2cc(-c3ccccc3)cc(C)c2F)C1 [Compound I-113]
9 | ≤ 10 | ≤ 10 | CC(=O)N1CCCC(CS(=O)(=O)NNC(=O)c2cc(-c3ccccc3)cc(C)c2F)C1 (stereo not drawn) [Compound I-322]
10 | 10 to 50 | ≤ 10 | Cc1cc(-c2ccccc2)cc(C(=O)NNS(=O)(=O)C(C)C2CCN(C(=O)OC(C)(C)C)CC2)c1F (stereo not drawn) [Compound I-307]
11 | 10 to 50 | ≤ 10 | Cc1cc(C(=O)NNS(=O)(=O)c2ccccc2)c(F)c(-c2ccccc2)c1 [Compound I-142]
12 | ≤ 10 | ≤ 10 | Cc1cc(-c2cccc(F)c2)cc(C(=O)NNS(=O)(=O)CC2CCCN(C(=O)C(C)C)C2)c1F (stereo not drawn) [Compound I-292]
13 | 50 to 100 | ≤ 10 | COc1ccccc1-c1cc(C)c(F)c(C(=O)NNS(=O)(=O)c2ccccc2)c1 [Compound I-304]
14 | > 100 | ≤ 10 | O=C(NNS(=O)(=O)c1ccccc1)c1cccc(-c2ccccc2)c1 [Compound I-144]
15 | ≤ 10 | ≤ 10 | COCc1cc(Cl)c(F)c(C(=O)NNS(=O)(=O)CC2CCCCC2)c1 [Compound I-437]
16 | > 100 | > 100 | O=C(NNC(c1ccccc1)C(F)(F)F)c1ccccc1F (stereo not drawn) [Compound I-134]
17 | > 100 | > 100 | O=C(NNS(=O)(=O)c1ccccc1)c1ccccc1Cl [Compound I-149]
18 | ≤ 10 | ≤ 10 | O=C(NNS(=O)(=O)CC1CCOCC1)c1cc(-c2ccccc2)cc(Cl)c1F [Compound I-400]
19 | 10 to 50 | 10 to 50 | COCCN1CCC(C(C)S(=O)(=O)NNC(=O)c2cc(-c3ccccc3)cc(C)c2F)CC1 (stereo not drawn) [Compound I-277]
20 | ≤ 10 | 10 to 50 | CNC(=O)c1cccc(-c2cc(C)c(F)c(C(=O)NNS(=O)(=O)CC3CCCCC3)c2)c1 [Compound I-433]
21 | ≤ 10 | ≤ 10 | O=C(NNS(=O)(=O)c1ccccc1)c1cc(-c2ccccc2)cc(Cl)c1F [Compound I-220]
22 | > 100 | > 100 | O=C(NNS(=O)(=O)C1CCOCC1)c1cc(C(=O)N2CCOCC2)cc(Cl)c1F [Compound I-439]

Row | IC50 [1] [µM] | IC50 [2] [µM] | Structure (SMILES)
23 | ≤ 10 | ≤ 10 | O=C(NNS(=O)(=O)C1CCCCC1)c1cc(-c2cccc(F)c2)cc(Cl)c1F [Compound I-395]
24 | > 100 | > 100 | Cc1nn(C)c(C(=O)NNS(=O)(=O)C2CCCCC2)c1F [Compound I-469]
25 | > 100 | > 100 | CNC(=O)c1cccc(-c2cc(C)c(F)c(C(=O)NNS(=O)(=O)C3CCCCC3)c2)c1 [Compound I-458]
26 | 50 to 100 | 10 to 50 | Cc1c(-c2ccccc2)ccc(F)c1C(=O)NNS(=O)(=O)c1ccccc1Cl [Compound I-225]
27 | ≤ 10 | ≤ 10 | COCC(=O)N1CCCC(CS(=O)(=O)NNC(=O)c2cc(-c3cccc(F)c3)cc(Cl)c2F)C1 (stereo not drawn) [Compound I-418]
28 | > 100 | > 100 | O=C(NNS(=O)(=O)c1ccccc1)c1c[nH]c2ccccc12 [Compound I-158]
29 | > 100 | > 100 | COCCNC(=O)c1cccc(-c2cc(C)c(F)c(C(=O)N(N)S(=O)(=O)c3ccccc3)c2)c1 [Compound I-477]
30 | > 100 | > 100 | CNC(=O)Cn1cc(F)c(C(=O)NNS(=O)(=O)C2CCCCC2)n1 [Compound I-496]
31 | 50 to 100 | 10 to 50 | O=C(NNS(=O)(=O)c1ccccc1)c1c(F)ccc(-c2cn[nH]c2)c1F [Compound I-167]
32 | ≤ 10 | ≤ 10 | Cc1cc(-c2cc(F)cc(F)c2)cc(C(=O)NNS(=O)(=O)c2ccccc2)c1F [Compound I-353]
33 | ≤ 10 | ≤ 10 | Cc1cc(-c2ccccc2)cc(C(=O)NNS(=O)(=O)c2ccc(O)cc2)c1F [Compound I-211]
34 | > 100 | > 100 | O=S(=O)(NNCc1ccccc1F)c1ccccc1 [Compound I-245]
35 | 10 to 50 | > 100 | Nc1ccc(-c2cc(Cl)c(F)c(C(=O)NNS(=O)(=O)C3CCOCC3)c2)cc1 [Compound I-455]
36 | ≤ 10 | 10 to 50 | Cc1cccc(-c2cc(C)c(F)c(C(=O)NNS(=O)(=O)C3CCCCC3)c2)c1 [Compound I-325]
37 | ≤ 10 | ≤ 10 | CC(=O)N1CCOC(CS(=O)(=O)NNC(=O)c2cc(-c3cccc(F)c3)cc(C)c2F)C1 (stereo not drawn) [Compound I-429]
38 | ≤ 10 | ≤ 10 | Cc1cc(-c2ccccc2)cc(C(=O)NNS(=O)(=O)c2cccc(Cl)c2)c1F [Compound I-187]
39 | ≤ 10 | ≤ 10 | CC(=O)N1CCC(CS(=O)(=O)NNC(=O)c2cc(-c3ccccc3)cc(C)c2F)CC1 [Compound I-341]
40 | 50 to 100 | 50 to 100 | Cc1cc(-c2cccc(C(=O)OCc3ccccc3)c2)cc(C(=O)NNS(=O)(=O)c2ccccc2)c1F [Compound I-449]
41 | > 100 | > 100 | Cc1c(-c2ccccc2)ccc(F)c1C(=O)NNS(=O)(=O)C(C)C [Compound I-231]
42 | ≤ 10 | 10 to 50 | Cc1cc(-c2cc(F)cc(F)c2)cc(C(=O)NNS(=O)(=O)C2CCCCC2)c1F [Compound I-317]
43 | > 100 | > 100 | CN(C)C(=O)c1cc(Cl)c(F)c(C(=O)NNS(=O)(=O)C2CCOCC2)c1 [Compound I-434]
44 | 10 to 50 | ≤ 10 | Cc1cc(-c2ccccc2)cc(C(=O)NNS(=O)(=O)CC2CNCCO2)c1F (stereo not drawn) [Compound I-426]

Row | IC50 [1] [µM] | IC50 [2] [µM] | Structure (SMILES)
45 | 10 to 50 | 10 to 50 | Cc1cc(-c2ccccc2)cc(C(=O)NNS(=O)(=O)C2CC3CCC(C2)N3C(=O)OC(C)(C)C)c1F (stereo not drawn) [Compound I-137]
46 | > 100 | ≤ 10 | Cc1cc(-c2ccccc2)cc(C(=O)NNS(=O)(=O)c2ccc(=O)[nH]c2)c1F [Compound I-162]
47 | > 100 | > 100 | O=C(NCCO)c1cc(Cl)c(F)c(C(=O)NNS(=O)(=O)C2CCOCC2)c1 [Compound I-480]
48 | > 100 | > 100 | Cc1ccc(-c2ccccc2)c(C)c1C(=O)NNS(=O)(=O)c1ccccc1 [Compound I-200]
49 | > 100 | 50 to 100 | Cc1c(-c2ccccc2)ccc(F)c1C(=O)NNS(=O)(=O)C1CCCCC1 [Compound I-117]
50 | 10 to 50 | 50 to 100 | COCCOc1cccc(-c2cc(C)c(F)c(C(=O)NNS(=O)(=O)C3CCCCC3)c2)c1 [Compound I-272]
51 | ≤ 10 | ≤ 10 | COc1cccc(S(=O)(=O)NNC(=O)c2cc(-c3ccccc3)cc(C)c2F)c1 [Compound I-232]
52 | 10 to 50 | 10 to 50 | Cc1cccc(-c2cccc(C(=O)NNS(=O)(=O)c3ccccc3)c2F)c1 [Compound I-229]
53 | > 100 | > 100 | O=S(=O)(NNc1n[nH]c2ccccc12)c1ccccc1 [Compound I-44]
54 | 50 to 100 | > 100 | Cc1c(-c2ccccc2)ccc(F)c1C(=O)NNS(=O)(=O)Cc1ccccc1 [Compound I-361]
55 | 10 to 50 | 10 to 50 | CNCCC(=O)N1CCC(CS(=O)(=O)NNC(=O)c2cc(-c3cccc(F)c3)cc(C)c2F)CC1 [Compound I-389]
56 | ≤ 10 | ≤ 10 | Cc1nc(-c2cccc(F)c2)cc(C(=O)NNS(=O)(=O)CC2CCCN(C(=O)C3CCC3)C2)c1F (stereo not drawn) [Compound I-291]
57 | 50 to 100 | > 100 | Cc1cc(-c2cccc(C(=O)N(C)C)c2)cc(C(=O)NNS(=O)(=O)C2CCCCC2)c1F [Compound I-378]
58 | ≤ 10 | ≤ 10 | CC(=O)N1CCC(CS(=O)(=O)NNC(=O)c2cc(-c3cccc(F)c3)cc(C)c2F)CC1 [Compound I-388]
59 | > 100 | > 100 | O=C(NNCc1ccccc1)c1ccccc1F [Compound I-169]
60 | > 100 | > 100 | O=C(NNS(=O)(=O)c1cccc(-c2ccccc2)c1)c1ccccc1 [Compound I-521]
61 | ≤ 10 | ≤ 10 | Cc1cc(-c2ccccc2)cc(C(=O)NNS(=O)(=O)Cc2ccccc2F)c1F [Compound I-82]
62 | 50 to 100 | > 100 | Cc1cc(-c2cccc(F)c2)cc(C(=O)NNS(=O)(=O)CC2CCNCC2)c1F [Compound I-357]
63 | > 100 | 50 to 100 | Cc1cc(-c2ccccc2)cc(C(=O)NNS(=O)(=O)C2CCCN(C(C)C)C2)c1F (stereo not drawn) [Compound I-100]
64 | 10 to 50 | 50 to 100 | Cc1cc(-c2cccc(C(=O)OCc3ccccc3)c2)cc(C(=O)NNS(=O)(=O)CC2CCCCC2)c1F [Compound I-446]
65 | 50 to 100 | 50 to 100 | COc1ccccc1-c1cc(C)c(F)c(C(=O)NNS(=O)(=O)C2CCCCC2)c1 [Compound I-302]
66 | 10 to 50 | 10 to 50 | COCCN1CC(CS(=O)(=O)NNC(=O)c2cc(-c3ccccc3)cc(C)c2F)C1 [Compound I-208]
